Structures are written as SMILES.

The test system of the assay is 377384-186-R-J1-PDC complex spheroid viability. Briefly: Anticancer human tumor 377384-186-R-J1-PDC patient-derived pancreatic carcinoma cell line growth inhibition [RAS]. The following applies: for viability, T/C: stronger effect = lower value. In a few lines: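 Multi-cell-type spheroids: tumor cells plus HUVEC endothelial cells and mesenchymal stem cells. RAS-pathway inhibitors were combined with targeted agents, each dosed in half-log steps down from clinical Cmax, or from 10 microM when Cmax was unknown.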
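Note: spheroids exposed to compounds for seven days before readout.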

By IC50 is commonly meant the point on the concentration scale where inhibition reaches its midpoint. Usually viability, T/C stands for the result in the treated group divided by that in the control group, in per cent. Consider `CC(C)NCC(C(=O)N1CCN(c2ncnc3c2C(C)CC3O)CC1)c1ccc(Cl)cc1` (stereo not drawn) + C=CC(=O)N1CCN(c2nc(OCC3CCCN3C)nc3c(F)c(-c4nc(N)cc(C)c4C(F)(F)F)c(Cl)cc23)C(C)C1, for which the half-inhibitory concentration (IC50) was determined as 2.32 µM (curve of first compound, second compound 0.00316 µM); 2.67 µM (curve of first compound, second compound 0.01 µM); 2.78 µM (curve of first compound, second compound 0.0316 µM); 2.45 µM (curve of first compound, second compound 0.1 µM); 1.76 µM (curve of first compound, second compound 0.316 µM); 2.06 µM (curve of first compound, second compound 1 µM). The viability, T/C by setting is: (second compound 0.00316 µM, first compound 0.0316 µM) 80.9%; (second compound 0.00316 µM, first compound 0.1 µM) 95%; (second compound 0.00316 µM, first compound 0.316 µM) 87.4%; (second compound 0.00316 µM, first compound 1 µM) 61.7%; (second compound 0.00316 µM, first compound 3.16 µM) 48.6%; (second compound 0.00316 µM, first compound 10 µM) 32.6%. The viability, T/C is, setting by setting: (second compound 0.01 µM, first compound 0.0316 µM) 96.8%; (second compound 0.01 µM, first compound 0.1 µM) 78.1%; (second compound 0.01 µM, first compound 0.316 µM) 73.7%; (second compound 0.01 µM, first compound 1 µM) 63.3%; (second compound 0.01 µM, first compound 3.16 µM) 46.4%; (second compound 0.01 µM, first compound 10 µM) 35.9%. The viability, T/C is 91.3% (second compound 0.0316 µM, first compound 0.0316 µM); 96.7% (second compound 0.0316 µM, first compound 0.1 µM); 70% (second compound 0.0316 µM, first compound 0.316 µM); 67.1% (second compound 0.0316 µM, first compound 1 µM); 47.4% (second compound 0.0316 µM, first compound 3.16 µM); 38.1% (second compound 0.0316 µM, first compound 10 µM). Also, the viability, T/C is 99.8% (second compound 0.1 µM, first compound 0.0316 µM); 85% (second compound 0.1 µM, first compound 0.1 µM); 86.5% (second compound 0.1 µM, first compound 0.316 µM); 58.7% (second compound 0.1 µM, first compound 1 µM); 48.2% (second compound 0.1 µM, first compound 3.16 µM); 35.5% (second compound 0.1 µM, first compound 10 µM). In addition, the viability, T/C runs as follows: (second compound 0.316 µM, first compound 0.0316 µM) 89.4%; (second compound 0.316 µM, first compound 0.1 µM) 102%; (second compound 0.316 µM, first compound 0.316 µM) 80.9%; (second compound 0.316 µM, first compound 1 µM) 56%; (second compound 0.316 µM, first compound 3.16 µM) 47.8%; (second compound 0.316 µM, first compound 10 µM) 35%. For the same compound, the viability, T/C (second compound 1 µM, first compound 0.0316 µM) is 91.8%; the viability, T/C (second compound 1 µM, first compound 0.1 µM) is 97%; the viability, T/C (second compound 1 µM, first compound 0.316 µM) was 75.1%; the viability, T/C (second compound 1 µM, first compound 1 µM) is 61.7%; the viability, T/C (second compound 1 µM, first compound 3.16 µM) is 44.4%; the viability, T/C (second compound 1 µM, first compound 10 µM) is 32.8%.

`CC(C)NCC(C(=O)N1CCN(c2ncnc3c2C(C)CC3O)CC1)c1ccc(Cl)cc1` (stereo not drawn): the viability, T/C by setting is: (compound 0.1 µM) 92% [middle of 4 runs]; (compound 0.316 µM) 75.2% [middle of 4 runs]; (compound 1 µM) 63.2% [middle of 4 runs]; (compound 3.16 µM) 51.9% [middle of 4 runs]; (compound 10 µM) 36.2% [middle of 4 runs]. For the same compound, the half-maximal inhibitory concentration (IC50) (curve of compound) is 2.58 µM [middle of 4 runs].

For the origin of these results see PubChem BioAssay AID2060903 (Molecular Pharmacology Branch, DTP, NCI, 2025).
